Test system: 648629-189-R-J1-PDC spheroids with HUVEC/MSC, viability
Test: Anticancer human tumor 648629-189-R-J1-PDC patient-derived bladder carcinoma cell line growth inhibition [PI3K]
Conditions: for IC50: curve of first compound; for viability, T/C: stronger effect = lower value
How it was run: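 High-throughput combination screen: PI3K inhibitors crossed with targeted small molecules on complex spheroids of tumor cells, HUVEC and MSCs at 37 degrees C, 5% CO2. Top concentration was at or near clinical Cmax (otherwise 10 microM), with half-log decrements.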

[1] = second compound 0.0316 µM, first compound 0.0316 µM
[2] = second compound 0.0316 µM, first compound 0.1 µM
[3] = second compound 0.0316 µM, first compound 0.316 µM
[4] = second compound 0.0316 µM, first compound 1 µM
[5] = second compound 0.1 µM, first compound 0.0316 µM
[6] = second compound 0.1 µM, first compound 0.1 µM
[7] = second compound 0.1 µM, first compound 0.316 µM
[8] = second compound 0.1 µM, first compound 1 µM
[9] = second compound 0.316 µM, first compound 0.0316 µM
[10] = second compound 0.316 µM, first compound 0.1 µM
[11] = second compound 0.316 µM, first compound 0.316 µM
[12] = second compound 0.316 µM, first compound 1 µM
[13] = second compound 1 µM, first compound 0.0316 µM
[14] = second compound 1 µM, first compound 0.1 µM
[15] = second compound 1 µM, first compound 0.316 µM
[16] = second compound 1 µM, first compound 1 µM
[17] = second compound 3.16 µM, first compound 0.0316 µM
[18] = second compound 3.16 µM, first compound 0.1 µM
[19] = second compound 3.16 µM, first compound 0.316 µM
[20] = second compound 3.16 µM, first compound 1 µM
[21] = second compound 10 µM, first compound 0.0316 µM
[22] = second compound 10 µM, first compound 0.1 µM
[23] = second compound 10 µM, first compound 0.316 µM
[24] = second compound 10 µM, first compound 1 µM
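Also: spheroids exposed to agents for seven days before reading.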
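For viability, T/C in this document: percent of vehicle control luminescence where 100% = DMSO treated spheroids.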

CC(C)NCC(C(=O)N1CCN(c2ncnc3c2C(C)CC3O)CC1)c1ccc(Cl)cc1 (centres undefined) + Cc1nc(NC(=O)N2CCCC2C(N)=O)sc1-c1ccnc(C(C)(C)C(F)(F)F)c1
IC50 (second compound 0.0316 µM): 719 nM
IC50 (second compound 0.1 µM): 784 nM
IC50 (second compound 0.316 µM): 648 nM
IC50 (second compound 1 µM): 506 nM
IC50 (second compound 3.16 µM): 154 nM
IC50 (second compound 10 µM): < 31.6 nM
viability, T/C [1]: 105%
viability, T/C [2]: 82.2%
viability, T/C [3]: 73.8%
viability, T/C [4]: 40.5%
viability, T/C (second compound 0.0316 µM, first compound 3.16 µM): 23.2%
viability, T/C (second compound 0.0316 µM, first compound 10 µM): 15.7%
viability, T/C [5]: 102%
viability, T/C [6]: 91%
viability, T/C [7]: 75.2%
viability, T/C [8]: 42.2%
viability, T/C (second compound 0.1 µM, first compound 3.16 µM): 23.1%
viability, T/C (second compound 0.1 µM, first compound 10 µM): 12.8%
viability, T/C [9]: 84.1%
viability, T/C [10]: 80.6%
viability, T/C [11]: 70.6%
viability, T/C [12]: 36.7%
viability, T/C (second compound 0.316 µM, first compound 3.16 µM): 22%
viability, T/C (second compound 0.316 µM, first compound 10 µM): 12.5%
viability, T/C [13]: 69.6%
viability, T/C [14]: 88.4%
viability, T/C [15]: 57.1%
viability, T/C [16]: 34.2%
viability, T/C (second compound 1 µM, first compound 3.16 µM): 21.5%
viability, T/C (second compound 1 µM, first compound 10 µM): 12.4%
viability, T/C [17]: 61.1%
viability, T/C [18]: 53.6%
viability, T/C [19]: 43.8%
viability, T/C [20]: 32.8%
viability, T/C (second compound 3.16 µM, first compound 3.16 µM): 20.8%
viability, T/C (second compound 3.16 µM, first compound 10 µM): 10.1%
viability, T/C [21]: 38%
viability, T/C [22]: 34.6%
viability, T/C [23]: 28.7%
viability, T/C [24]: 20.1%
viability, T/C (second compound 10 µM, first compound 3.16 µM): 13.2%
viability, T/C (second compound 10 µM, first compound 10 µM): 5.54%

CCN1CCN(Cc2ccc(Nc3ncc(F)c(-c4cc(F)c5nc(C)n(C(C)C)c5c4)n3)nc2)CC1 + Cc1nc(NC(=O)N2CCCC2C(N)=O)sc1-c1ccnc(C(C)(C)C(F)(F)F)c1
IC50 (second compound 0.0316 µM): > 1000 nM
IC50 (second compound 0.1 µM): > 1000 nM
IC50 (second compound 0.316 µM): > 1000 nM
IC50 (second compound 1 µM): > 1000 nM
IC50 (second compound 3.16 µM): > 1000 nM
IC50 (second compound 10 µM): < 3.16 nM
viability, T/C (second compound 0.0316 µM, first compound 0.00316 µM): 96.4%
viability, T/C (second compound 0.0316 µM, first compound 0.01 µM): 107%
viability, T/C [1]: 104%
viability, T/C [2]: 99.2%
viability, T/C [3]: 119%
viability, T/C [4]: 120%
viability, T/C (second compound 0.1 µM, first compound 0.00316 µM): 101%
viability, T/C (second compound 0.1 µM, first compound 0.01 µM): 103%
viability, T/C [5]: 101%
viability, T/C [6]: 114%
viability, T/C [7]: 100%
viability, T/C [8]: 109%
viability, T/C (second compound 0.316 µM, first compound 0.00316 µM): 88.8%
viability, T/C (second compound 0.316 µM, first compound 0.01 µM): 93.7%
viability, T/C [9]: 90%
viability, T/C [10]: 91.6%
viability, T/C [11]: 96.9%
viability, T/C [12]: 101%
viability, T/C (second compound 1 µM, first compound 0.00316 µM): 78.2%
viability, T/C (second compound 1 µM, first compound 0.01 µM): 75.5%
viability, T/C [13]: 73%
viability, T/C [14]: 80.4%
viability, T/C [15]: 83.6%
viability, T/C [16]: 83.1%
viability, T/C (second compound 3.16 µM, first compound 0.00316 µM): 49.9%
viability, T/C (second compound 3.16 µM, first compound 0.01 µM): 57.7%
viability, T/C [17]: 53.8%
viability, T/C [18]: 59.3%
viability, T/C [19]: 64.7%
viability, T/C [20]: 69.8%
viability, T/C (second compound 10 µM, first compound 0.00316 µM): 41.9%
viability, T/C (second compound 10 µM, first compound 0.01 µM): 38.8%
viability, T/C [21]: 40.7%
viability, T/C [22]: 41.5%
viability, T/C [23]: 43.5%
viability, T/C [24]: 41.6%

Reference: PubChem BioAssay AID1963974 (Molecular Pharmacology Branch, DTP, NCI, 2024)
